This test has as its target T1, STAT6 (Homo sapiens, UniProt P42226).
T1 construct: stably transfected HaCaT keratinocyte cell line, which expresses NanoLuc luciferase reporter gene under the transcriptional control of the STAT6 responsive promoter; endogenous in cells; host or cells: HaCaT keratinocyte reporter cell line (stably transfected with a NanoLuc reporter)
T1 sequence (P42226 1-847): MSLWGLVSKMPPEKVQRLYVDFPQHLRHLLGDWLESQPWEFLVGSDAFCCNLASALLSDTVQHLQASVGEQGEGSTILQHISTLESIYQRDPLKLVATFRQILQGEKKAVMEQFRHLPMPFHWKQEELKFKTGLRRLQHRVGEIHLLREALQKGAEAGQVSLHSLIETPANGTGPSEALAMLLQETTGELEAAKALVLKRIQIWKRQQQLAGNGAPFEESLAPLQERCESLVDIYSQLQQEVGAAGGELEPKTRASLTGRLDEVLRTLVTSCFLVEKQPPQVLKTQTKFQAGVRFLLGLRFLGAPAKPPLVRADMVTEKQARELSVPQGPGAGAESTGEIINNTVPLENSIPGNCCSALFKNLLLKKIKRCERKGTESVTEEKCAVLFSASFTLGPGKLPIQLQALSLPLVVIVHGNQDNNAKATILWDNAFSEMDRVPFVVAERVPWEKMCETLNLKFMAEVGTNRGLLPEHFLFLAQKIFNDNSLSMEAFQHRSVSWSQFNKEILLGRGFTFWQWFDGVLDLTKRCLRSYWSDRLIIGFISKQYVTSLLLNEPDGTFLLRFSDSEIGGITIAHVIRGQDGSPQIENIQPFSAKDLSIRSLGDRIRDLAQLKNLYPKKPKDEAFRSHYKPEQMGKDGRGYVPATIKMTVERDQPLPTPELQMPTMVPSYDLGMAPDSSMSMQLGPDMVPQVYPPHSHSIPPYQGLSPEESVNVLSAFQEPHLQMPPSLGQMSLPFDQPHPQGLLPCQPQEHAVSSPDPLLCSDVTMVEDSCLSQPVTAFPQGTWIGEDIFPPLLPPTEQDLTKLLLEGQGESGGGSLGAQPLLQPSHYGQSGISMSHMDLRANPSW
The experiment in a line: STAT6 Reporter Luciferase Assay (IL-13 stimulated HaCaT keratinocyte NanoLuc reporter cells). The class given is cell-based. Particulars: IL-13 stimulated HaCaT STAT6 NanoLuc reporter cells; read-out: Reporter EC50. An outline of the steps: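 Compounds were tested as 11-point, 4-fold series in duplicate, applied for 2 h at 37 °C in low-serum (2% FBS) DMEM. The cells were a stable HaCaT line with NanoLuc under a STAT6-responsive IL-13Ra2 promoter. After 4 h with 0.12 nM IL-13, Nano-Glo luminescence was measured.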
A word on the EC50: it is the midpoint of the concentration-response curve. In the case of `Cc1nnc2n1CCN(C(=O)c1ccc(N3CCc4c(c(C(=O)NCc5ccc(NC(=O)N(C)C)cc5)nn4C(C)C)C3)nc1)C2` [Example 373, N-(4-(3,3-dimethylureido)benzyl)-1-isopropyl-5-(5-(3-methyl-5,6,7,8-tetrahydro-[1,2,4]triazolo[4,3-a]pyrazine-7-carbonyl)pyridin-2-yl)-4,5,6,7-tetrahydro-1H-pyrazolo[4,3-c]pyridine-3-carboxamide], the EC50 was found to be 540 nM. Consider `CC(C)n1nc(C(=O)NCc2ccc(NC(=O)N(C)C)cc2)c2c1CCN(c1ccc(C(=O)N3CCc4ncsc4C3)cn1)C2` [Example 374, N-(4-(3,3-dimethylureido)benzyl)-1-isopropyl-5-(5-(4,5,6,7-tetrahydrothiazolo[5,4-c]pyridine-5-carbonyl)pyridin-2-yl)-4,5,6,7-tetrahydro-1H-pyrazolo[4,3-c]pyridine-3-carboxamide], for which the EC50 came out at 14 nM.

`CC(C)n1nc(C(=O)NCc2ccc(NC(=O)N(C)C)cc2)c2c1CCN(c1ccc(C(=O)N3CCc4ncccc4C3)cn1)C2` [Example 376, N-(4-(3,3-dimethylureido)benzyl)-1-isopropyl-5-(5-(5,6,7,8-tetrahydro-1,6-naphthyridine-6-carbonyl)pyridin-2-yl)-4,5,6,7-tetrahydro-1H-pyrazolo[4,3-c]pyridine-3-carboxamide]: the EC50 was 10 nM.

With `Cc1cc2n(n1)CCN(C(=O)c1ccc(N3CCc4c(c(C(=O)NCc5ccc(NC(=O)N(C)C)cc5)nn4C(C)C)C3)nc1)C2` [Example 377, N-(4-(3,3-dimethylureido)benzyl)-1-isopropyl-5-(5-(2-methyl-4,5,6,7-tetrahydropyrazolo[1,5-a]pyrazine-5-carbonyl)pyridin-2-yl)-4,5,6,7-tetrahydro-1H-pyrazolo[4,3-c]pyridine-3-carboxamide], the EC50 came to 21 nM. In the case of `CC(C)n1nc(C(=O)NCc2ccc(NC(=O)N(C)C)cc2)c2c1CCN(c1ccc(C(=O)N3Cc4ccncc4C3)cn1)C2` [Example 378, 5-(5-(2,3-dihydro-1H-pyrrolo[3,4-c]pyridine-2-carbonyl)pyridin-2-yl)-N-(4-(3,3-dimethylureido)benzyl)-1-isopropyl-4,5,6,7-tetrahydro-1H-pyrazolo[4,3-c]pyridine-3-carboxamide] it was 15 nM; in that of `CC(C)n1nc(C(=O)NCc2ccc(NC(=O)N(C)C)cc2)c2c1CCN(c1ccc(C(=O)N3CCc4ncncc4C3)cn1)C2` [Example 379, N-(4-(3,3-dimethylureido)benzyl)-1-isopropyl-5-(5-(5,6,7,8-tetrahydropyrido[4,3-d]pyrimidine-6-carbonyl)pyridin-2-yl)-4,5,6,7-tetrahydro-1H-pyrazolo[4,3-c]pyridine-3-carboxamide], 70 nM; in that of `CC(C)n1nc(C(=O)NCc2ccc(NC(=O)N(C)C)cc2)c2c1CCN(c1ccc(C(=O)N3CCn4cnnc4C3)cn1)C2` [Example 380, N-(4-(3,3-dimethylureido)benzyl)-1-isopropyl-5-(5-(5,6,7,8-tetrahydro-[1,2,4]triazolo[4,3-a]pyrazine-7-carbonyl)pyridin-2-yl)-4,5,6,7-tetrahydro-1H-pyrazolo[4,3-c]pyridine-3-carboxamide], 538 nM. As for `Cc1c2c(nn1C)CCN(C(=O)c1ccc(N3CCc4c(c(C(=O)NCc5ccc(NC(=O)N(C)C)cc5)nn4C(C)C)C3)nc1)C2` [Example 381, 5-(5-(2,3-dimethyl-4,5,6,7-tetrahydro-2H-pyrazolo[4,3-c]pyridine-5-carbonyl)pyridin-2-yl)-N-(4-(3,3-dimethylureido)benzyl)-1-isopropyl-4,5,6,7-tetrahydro-1H-pyrazolo[4,3-c]pyridine-3-carboxamide], the figure is 33 nM; as for `Cc1ncc2n1CCN(C(=O)c1ccc(N3CCc4c(c(C(=O)NCc5ccc(NC(=O)N(C)C)cc5)nn4C(C)C)C3)nc1)C2` [Example 382, N-(4-(3,3-dimethylureido)benzyl)-1-isopropyl-5-(5-(3-methyl-5,6,7,8-tetrahydroimidazo[1,5-a]pyrazine-7-carbonyl)pyridin-2-yl)-4,5,6,7-tetrahydro-1H-pyrazolo[4,3-c]pyridine-3-carboxamide], 137 nM. For the molecule `CC(C)n1nc(C(=O)NCc2ccc(NC(=O)N(C)C)cc2)c2c1CCN(c1ccc(C(=O)N3CCc4nocc4C3)cn1)C2` [Example 383, N-(4-(3,3-dimethylureido)benzyl)-1-isopropyl-5-(5-(4,5,6,7-tetrahydroisoxazolo[4,3-c]pyridine-5-carbonyl)pyridin-2-yl)-4,5,6,7-tetrahydro-1H-pyrazolo[4,3-c]pyridine-3-carboxamide], the EC50 was 49 nM. As for `CC(C)n1nc(C(=O)NCc2ccc(NC(=O)N(C)C)cc2)c2c1CCN(c1ccc(C(=O)N3Cc4cn(C)nc4C3)cn1)C2` [Example 385, N-(4-(3,3-dimethylureido)benzyl)-1-isopropyl-5-(5-(2-methyl-2,4,5,6-tetrahydropyrrolo[3,4-c]pyrazole-5-carbonyl)pyridin-2-yl)-4,5,6,7-tetrahydro-1H-pyrazolo[4,3-c]pyridine-3-carboxamide], the figure is 4 nM; as for `CC(C)n1nc(C(=O)NCc2ccc(NC(=O)N(C)C)cc2)c2c1CCN(c1ccc(C(=O)N3CCn4nc(C#N)cc4C3)cn1)C2` [Example 386, 5-(5-(2-cyano-4,5,6,7-tetrahydropyrazolo[1,5-a]pyrazine-5-carbonyl)pyridin-2-yl)-N-(4-(3,3-dimethylureido)benzyl)-1-isopropyl-4,5,6,7-tetrahydro-1H-pyrazolo[4,3-c]pyridine-3-carboxamide], 56 nM; as for `COc1cccc2c1CN(C(=O)c1ccc(N3CCc4c(c(C(=O)NCc5ccc(NC(=O)N(C)C)cc5)nn4C(C)C)C3)nc1)C2` [Example 387, N-(4-(3,3-dimethylureido)benzyl)-1-isopropyl-5-(5-(4-methoxyisoindoline-2-carbonyl)pyridin-2-yl)-4,5,6,7-tetrahydro-1H-pyrazolo[4,3-c]pyridine-3-carboxamide], 3 nM.

Regarding `Cc1nn(C)c2c1CN(C(=O)c1ccc(N3CCc4c(c(C(=O)NCc5ccc(NC(=O)N(C)C)cc5)nn4C(C)C)C3)nc1)C2` [Example 401, 5-(5-(1,3-dimethyl-1,4,5,6-tetrahydropyrrolo[3,4-c]pyrazole-5-carbonyl)pyridin-2-yl)-N-(4-(3,3-dimethylureido)benzyl)-1-isopropyl-4,5,6,7-tetrahydro-1H-pyrazolo[4,3-c]pyridine-3-carboxamide], the EC50 worked out at 32 nM.

For `CC(C)n1nc(C(=O)NCc2ccc(NC(=O)N(C)C)cc2)c2c1CCN(c1ccc(C(=O)N3Cc4ncsc4C3)cn1)C2` [Example 402, 5-(5-(5,6-dihydro-4H-pyrrolo[3,4-d]thiazole-5-carbonyl)pyridin-2-yl)-N-(4-(3,3-dimethylureido)benzyl)-1-isopropyl-4,5,6,7-tetrahydro-1H-pyrazolo[4,3-c]pyridine-3-carboxamide], the EC50 stood at 3 nM. Consider `CC(C)n1nc(C(=O)NCc2ccc(NC(=O)N(C)C)cc2)c2c1CCN(c1ccc(C(=O)N3CCc4scnc4C3)cn1)C2` [Example 403, N-(4-(3,3-dimethylureido)benzyl)-1-isopropyl-5-(5-(4,5,6,7-tetrahydrothiazolo[4,5-c]pyridine-5-carbonyl)pyridin-2-yl)-4,5,6,7-tetrahydro-1H-pyrazolo[4,3-c]pyridine-3-carboxamide], for which the EC50 came out at 12 nM.

Take `Cc1cnc2n1CCN(C(=O)c1ccc(N3CCc4c(c(C(=O)NCc5ccc(NC(=O)N(C)C)cc5)nn4C(C)C)C3)nc1)C2` [Example 404, N-(4-(3,3-dimethylureido)benzyl)-1-isopropyl-5-(5-(3-methyl-5,6,7,8-tetrahydroimidazo[1,2-a]pyrazine-7-carbonyl)pyridin-2-yl)-4,5,6,7-tetrahydro-1H-pyrazolo[4,3-c]pyridine-3-carboxamide]: the EC50 was found to be 40 nM.

With `CC(C)n1nc(C(=O)NCc2ccc(NC(=O)N(C)C)cc2)c2c1CCN(c1ccc(C(=O)N3CCc4ncn(C)c4C3)cn1)C2` [Example 405, N-(4-(3,3-dimethylureido)benzyl)-1-isopropyl-5-(5-(3-methyl-4,5,6,7-tetrahydro-3H-imidazo[4,5-c]pyridine-5-carbonyl)pyridin-2-yl)-4,5,6,7-tetrahydro-1H-pyrazolo[4,3-c]pyridine-3-carboxamide], the EC50 is 159 nM.

The values above are taken from patent US20250320213A1, “Nitrogen-Containing Heterocyclic Compounds” (Pfizer Inc., priority 2024, published 2025).
